Laboratory results: US6342319B1, “Nonaqueous electrolyte secondary battery and method of manufacturing negative electrode” (Kabushiki Kaisha Toshiba, priority 1997, dated 2002)

assay: Acid dissociation constant pKa of the aromatic compound used as precursor material

Row | SMILES | pKa
1 | O=C(O)c1cccc(C(=O)O)c1 [benzene-1,3-dicarboxylic acid] | 3.5 to 4.5
2 | O=C(O)c1ccc(C(=O)O)c2ccccc12 [naphthalene-1,4-dicarboxylic acid] | 3.5 to 4.5
3 | O=C(O)c1cccc2ccccc12 [naphthalene-1-carboxylic acid] | 4.2
4 | O=C(O)c1ccc2c3ccc(C(=O)O)c4c(C(=O)O)ccc(c5ccc(C(=O)O)c1c25)c43 [perylene-3,4,9,10-tetracarboxylic acid] | 3.5 to 4.5

Second part, the molecule after the results:

Row | pKa | SMILES
5 | 3.5 to 4.5 | O=C(O)c1cc(C(=O)O)c(C(=O)O)cc1C(=O)O [benzene-1,2,4,5-tetracarboxylic acid]
6 | 3.5 to 4.5 | O=C(O)c1ccc(C(=O)O)c(C(=O)O)c1 [benzene-1,2,4-tricarboxylic acid]
7 | 3.5 to 4.5 | O=C(O)c1ccc(C(=O)O)c2c(C(=O)O)ccc(C(=O)O)c12 [naphthalene-1,4,5,8-tetracarboxylic acid]
8 | 3.5 to 4.5 | O=C(O)c1cccc2cccc(C(=O)O)c12 [naphthalene-1,8-dicarboxylic acid]

assay: physchem

Row | SMILES | pKa
9 | O=C(O)c1ccccc1C(=O)O [benzene-1,2-dicarboxylic acid] | 3.5 to 4.5
10 | O=C(O)c1ccc(C(=O)O)cc1 [benzene-1,4-dicarboxylic acid] | 3.5 to 4.5
